In US7511041B2, “Fused azole-pyrimidine derivatives” (Bayer Pharmaceuticals Corporation, priority 2002, dated 2009):
Where two headings read alike, the source gives them in different places.

What was measured:
[1] = target: T1, Recombinant human PI3Kγ (full length human PI3K p110γ) (Homo sapiens, UniProt P48736); experiment: Kinase assay of PI3Kγ (solid-phase lipid kinase assay); assay type: biochemical
T1 construct: full length human PI3K p110γ fused with a His6-tag at the C-terminus; His6 (C); purchased ALEXIS BIOCHEMICALS #201-055-C010; host or cells: S. frugiperda 9 insect cells
T1 sequence (P48736 whole entry, the tested form may be a part): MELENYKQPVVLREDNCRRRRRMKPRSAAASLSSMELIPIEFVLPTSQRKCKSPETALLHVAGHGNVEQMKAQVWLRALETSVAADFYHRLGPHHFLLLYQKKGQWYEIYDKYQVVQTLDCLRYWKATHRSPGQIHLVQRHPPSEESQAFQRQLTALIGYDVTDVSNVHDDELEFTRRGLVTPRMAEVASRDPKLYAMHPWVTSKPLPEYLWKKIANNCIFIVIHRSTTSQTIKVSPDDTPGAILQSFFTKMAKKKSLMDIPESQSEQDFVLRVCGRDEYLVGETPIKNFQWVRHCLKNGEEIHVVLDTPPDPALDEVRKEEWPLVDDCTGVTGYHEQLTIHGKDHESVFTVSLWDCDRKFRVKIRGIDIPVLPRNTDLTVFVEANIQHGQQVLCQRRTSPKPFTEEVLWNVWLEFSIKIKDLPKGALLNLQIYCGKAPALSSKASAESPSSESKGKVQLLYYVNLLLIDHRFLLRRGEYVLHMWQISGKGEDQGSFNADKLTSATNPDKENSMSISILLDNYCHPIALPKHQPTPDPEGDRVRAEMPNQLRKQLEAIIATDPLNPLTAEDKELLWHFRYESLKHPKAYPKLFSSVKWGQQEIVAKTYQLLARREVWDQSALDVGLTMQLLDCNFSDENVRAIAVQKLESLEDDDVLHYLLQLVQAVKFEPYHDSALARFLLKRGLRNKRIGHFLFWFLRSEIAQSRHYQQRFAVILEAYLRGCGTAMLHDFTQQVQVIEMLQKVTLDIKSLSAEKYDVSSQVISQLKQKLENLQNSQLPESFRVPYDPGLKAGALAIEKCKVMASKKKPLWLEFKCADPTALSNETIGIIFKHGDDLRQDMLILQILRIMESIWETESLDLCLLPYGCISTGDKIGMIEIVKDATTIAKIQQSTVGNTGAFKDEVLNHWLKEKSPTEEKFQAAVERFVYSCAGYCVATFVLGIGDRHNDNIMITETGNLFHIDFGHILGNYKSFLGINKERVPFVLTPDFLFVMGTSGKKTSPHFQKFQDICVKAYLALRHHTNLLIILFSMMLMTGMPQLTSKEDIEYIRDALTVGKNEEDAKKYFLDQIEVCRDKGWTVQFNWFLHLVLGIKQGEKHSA

[2] = in vitro PI3K-γ inhibitory activity, class symbols A-D, read-out: in vitro PI3K-gamma
[3] = Table 1, isozyme not given, read-out: in vitro
[4] = in vitro PI3K-γ inhibitory activity, class symbols, read-out: in vitro PI3K-gamma

| SMILES | IC50 [1, 2] [nM] | melting point | IC50 [1, 3] [nM] | IC50 [1, 4] [nM] |
| --- | --- | --- | --- | --- |
| O/C(=C\C1=Nc2cc(N3CCOCC3)ccc2C2=NCCN12)c1cccnc1 [Example 1-94] |  | 282 °C | 100 to 500 |  |
| Cc1nc(C)c(C(=O)NC2=Nc3cc(N4CCOCC4)ccc3C3=NCCN23)s1.Cl [Example 2-17] |  | 255 °C (dec.) |  | < 100 |
| O=C(NC1=Nc2ccccc2C2=NCCN12)c1ccccc1Cl.O=C(O)C(F)(F)F [Example 2-226] | > 2000 | 221 to 224 °C |  |  |
| COc1c(OCc2nn[nH]n2)ccc2c1N=C(/C=C(\O)c1cccnc1)N1CCN=C21 [Example 1-196] |  | 229 to 231 °C | < 100 |  |
| Cl.O/C(=C\C1=Nc2ccccc2C2=NCCN12)c1ccsc1 [Example 1-149] |  | > 300 °C | < 100 |  |
| O=C(NC1=Nc2cc(C(F)(F)F)ccc2C2=NCCN12)c1ccc2[nH]cnc2c1 [Example 2-36] |  | > 300 °C |  | 100 to 500 |
| Cl.O=C(NC1=Nc2ccc(-c3ccco3)cc2C2=NCCN12)c1cccnc1 [Example 2-97] |  | 298 to 299 °C |  | 100 to 500 |
| O/C(=C\C1=Nc2ccccc2C2=NCCN12)c1ccsc1 [Example 1-148] |  | 182 to 183 °C | 100 to 500 |  |
| COc1c(O)ccc2c1N=C(/C=C(\O)c1cccnc1)N1CCN=C21.Cl [Example 1-9] |  | 245 °C (dec.) | < 100 |  |
| O/C(=C\C1=Nc2ccccc2C2=NCCN12)c1ccccn1 [Example 1-173] |  | 195 °C | 500 to 2000 |  |
| COc1ccc2c(c1OC)N=C(NC(=O)c1ccc(NC(C)=O)nc1)N1CCN=C21 [Example 2-48] |  | 306 to 307 °C |  | < 100 |
| O=C(NC1=Nc2cc(Br)ccc2C2=NCCN12)c1ccc2[nH]cnc2c1 [Example 2-44] |  | 262 °C |  | 100 to 500 |
| CC(=O)Nc1ccc(/C(O)=C/C2=Nc3cc(N4CCCC(O)C4)ccc3C3=NCCN23)cn1.Cl (stereo not drawn) [Example 1-102] |  | 238 °C (dec.) | 100 to 500 |  |
| O/C(=C\C1=Nc2ccccc2C2=NCCN12)c1ccc[nH]1 [Example 1-150] |  | 247 °C | 100 to 500 |  |
| CN(C)C(=O)NCCc1ccc2c(n1)N=C(/C=C(\O)c1cccnc1)N1CCN=C21 [Example 1-203] |  | 228 °C | 100 to 500 |  |
| O/C(=C\C1=Nc2ccncc2C2=NCCN12)c1cccnc1 [Example 1-165] |  | 250 °C | 100 to 500 |  |
| CN(CCO)c1ccc2c(c1)N=C(/C=C(\O)c1ccc3[nH]cnc3c1)N1CCN=C21.Cl [Example 1-110] |  | 231 °C (dec.) | 100 to 500 |  |
| O/C(=C\C1=Nc2ccccc2C2=NCCN12)c1ccco1 [Example 1-143] |  | 192 °C | 100 to 500 |  |
| CCC(C(=O)c1ccccc1)C1=Nc2ccccc2C2=NCCN21 (stereo not drawn) [Example 1-193] |  | 156 to 160 °C | > 2000 |  |
| COc1c(C)ccc2c1N=C(/C=C(\O)c1ccc(NC(C)=O)nc1)N1CCN=C21.Cl [Example 1-33] |  | 273 °C | < 100 |  |
| COc1ccc2c(c1OCCN1CCOCC1)N=C(/C=C(\O)c1ccc(NC(C)=O)nc1)N1CCN=C21.Cl [Example 1-38] |  | 260 °C | < 100 |  |
| CC(=O)Nc1ccc(/C(O)=C/C2=Nc3c(C)cccc3C3=NCCN23)cn1 [Example 1-77] |  | > 285 °C | < 100 |  |

| SMILES | IC50 [1, 2] [nM] | melting point | IC50 [1, 3] [nM] | IC50 [1, 4] [nM] |
| --- | --- | --- | --- | --- |
| CC(C)(C)OC(=O)CCc1ccc2c(n1)N=C(/C=C(\O)c1cccnc1)N1CCN=C21 [Example 1-163] |  | 200 °C | 100 to 500 |  |
| COc1cccc2c1N=C(/C=C(\O)c1cccnc1)N1CCN=C21 [Example 1-68] |  | 275 °C | < 100 |  |
| COc1cc2c(cc1OC)C1=NCCN1C(NC(=O)c1ccc3[nH]cnc3c1)=N2 [Example 2-60] |  | 246 °C |  | < 100 |
| COc1cc2c(c(OC)c1C)N=C(NC(=O)c1ccc(NC(C)=O)nc1)N1CCN=C21.Cl [Example 2-80] |  | 305 °C (dec.) |  | < 100 |
| Cl.O=C(NC1=Nc2ccc(Cl)cc2C2=NCCN12)c1ccc2[nH]cnc2c1 [Example 2-86] |  | 305 °C (dec.) |  | 100 to 500 |
| COc1cccc(C(=O)NC2=Nc3ccccc3C3=NCCN23)c1.O=C(O)C(F)(F)F [Example 2-234] | 500 to 2000 | 209 to 211 °C |  |  |
| O=[N+]([O-])c1cc(/C(O)=C/C2=Nc3ccccc3C3=NCCN23)cs1 [Example 1-178] |  | 255 to 258 °C | > 2000 |  |
| COc1cc2c(c(OC)c1C)N=C(NC(=O)c1ccc(NC(C)=O)nc1)N1CCN=C21 [Example 2-79] |  | > 310 °C |  | 100 to 500 |
| Cl.O/C(=C\C1=Nc2ccc(O)cc2C2=NCCN12)c1cccnc1 [Example 1-125] |  | > 300 °C | < 100 |  |
| COc1cc(OC)c2c(c1)C1=NCCN1C(NC(=O)c1cccnc1)=N2 [Example 2-68] |  | 228 °C (dec.) |  | < 100 |
| O=C(NC1=Nc2cc(Cl)ccc2C2=NCCN12)c1ccc2[nH]cnc2c1 [Example 2-39] |  | 288 °C |  | < 100 |
| Cl.O/C(=C\C1=Nc2c(F)cccc2C2=NCCN12)c1cccnc1 [Example 1-70] |  | 218 °C | < 100 |  |
| COc1c(OCC(=O)N(C)C)ccc2c1N=C(/C=C(\O)c1cccnc1)N1CCN=C21 [Example 1-27] |  | 241 to 242 °C | < 100 |  |
| O=C(NC1=Nc2ccccc2C2=NCCN12)c1ccccc1.O=C(O)C(F)(F)F [Example 2-215] | 100 to 500 | 238 to 242 °C |  |  |
| CN(C)CCCOc1cccc2c1N=C(/C=C(\O)c1cccnc1)N1CCN=C21 [Example 1-87] |  | 235 °C (dec.) | 100 to 500 |  |
| Cc1ccc(/C(O)=C/C2=Nc3ccccc3C3=NCCN23)cn1 [Example 1-136] |  | 217 to 219 °C | 100 to 500 |  |
| CNC(=O)COc1ccc2c(c1OC)N=C(/C=C(\O)c1cccnc1)N1CCN=C21.Cl [Example 1-25] |  | 240 °C (dec.) | < 100 |  |
| COc1cc(OC)c2c(c1)C1=NCCN1C(/C=C(\O)c1cccnc1)=N2 [Example 1-42] |  | 218 °C | < 100 |  |
| Cc1ccc2c(c1)N=C(/C=C(\O)c1cccnc1)N1CCN=C21 [Example 1-119] |  | 224 °C | 100 to 500 |  |
| COc1ccc2c(c1OCC(=O)O)N=C(/C=C(\O)c1cccnc1)N1CCN=C21.Cl [Example 1-200] |  | 286 °C (dec.) | 100 to 500 |  |
| Cl.O=C(O)CCc1ccc2c(c1)N=C(/C=C(\O)c1cccnc1)N1CCN=C21 [Example 1-201] |  | 273 °C (dec.) | < 100 |  |

Further lines, results first:

| IC50 [1, 2] [nM] | melting point | IC50 [1, 3] [nM] | IC50 [1, 4] [nM] | SMILES |
| --- | --- | --- | --- | --- |
| > 2000 | 201 to 203 °C |  |  | Cc1cccc(C(=O)NC2=Nc3ccccc3C3=NCCN23)c1 [Example 2-216] |
| > 2000 | 202 to 203 °C |  |  | CC(C)n1nnc2cc(C(=O)NC3=Nc4ccccc4C4=NCCN34)ccc21 [Example 2-311] |
| > 2000 | 346 °C (dec.) |  |  | Cl.O=C(NC1=Nc2ccccc2C2=NCCN12)c1cccnc1O [Example 2-284] |
|  | 275 °C (dec.) |  | 100 to 500 | O=C(NC1=Nc2ccccc2C2=NCCN12)c1ccc2cccnc2n1 [Example 2-177] |
| > 2000 | 268 to 269 °C |  |  | O=C(NC1=Nc2ccccc2C2=NCCN12)c1cc(Cl)cc(Cl)c1 [Example 2-231] |
| > 2000 | 167 to 168 °C |  |  | COc1ccc(CC(=O)NC2=Nc3ccccc3C3=NCCN23)cc1 [Example 2-323] |
|  | 298 °C (dec.) |  | 100 to 500 | Cc1c(C(=O)NC2=Nc3ccccc3C3=NCCN23)cnc(N)c1C.Cl [Example 2-161] |
| > 2000 | 208 to 210 °C |  |  | CN(C=O)c1ccc(C(=O)NC2=Nc3ccccc3C3=NCCN23)cc1 [Example 2-263] |
| > 2000 | 189 °C |  |  | CC(=O)NC1=Nc2ccccc2C2=NCCN12 [Example 2-326] |
| > 2000 | 164 to 165 °C |  |  | O=C(NC1=Nc2ccccc2C2=NCCN12)C1CC1 [Example 2-334] |
| > 2000 | 230 to 240 °C |  |  | CCC(C)[C@H]1CN2C(NC(=O)c3cccnc3)=Nc3ccccc3C2=N1.Cl (stereo partly drawn) [Example 2-364] |
|  | 251 °C (dec.) |  | < 100 | COc1cccc2c1N=C(NC(=O)c1cccnc1C)N1CCN=C21.Cl [Example 2-117] |
| 500 to 2000 | 292 °C |  |  | Cl.O=C(NC1=Nc2cc(C(F)(F)F)ccc2C2=NCCN12)c1cccs1 [Example 2-350] |
|  | 277 to 279 °C |  | 100 to 500 | Cc1nc2ccccn2c1C(=O)NC1=Nc2ccccc2C2=NCCN12 [Example 2-170] |
| < 100 | 247 °C |  |  | Cl.O=C(NC1=Nc2cc(OCCCN3C(=O)c4ccccc4C3=O)ccc2C2=NCCN12)c1cccnc1 [Example 2-209] |
| 100 to 500 | 274 °C (dec.) |  |  | COc1ccc(C(=O)NC2=Nc3ccccc3C3=NCCN23)cc1OC.Cl [Example 2-238] |
| > 2000 | 316 °C (dec.) |  |  | Cl.O=C(NC1=Nc2ccccc2C2=NCCN12)c1cccc2cccnc12 [Example 2-318] |
|  | 187 to 188 °C |  | 100 to 500 | O=C(NC1=Nc2ccccc2C2=NCCN12)c1cccs1 [Example 2-178] |
| > 2000 | 224 to 226 °C |  |  | COC(=O)c1cccc(C(=O)NC2=Nc3ccccc3C3=NCCN23)c1 [Example 2-272] |
| > 2000 | 218 to 220 °C |  |  | O=C(NC1=Nc2ccccc2C2=NCCN12)c1ccc(-n2cccc2)cc1 [Example 2-266] |
